In patent US20260250318A1, “COMPOSITIONS AND METHODS FOR CROSSING THE BLOOD BRAIN BARRIER” (VOYAGER THERAPEUTICS, INC., priority 2022, published 2026):

Experiments:
[1] = tested on: brains, heart, liver, muscle, and DRG of the NHPs; test: Maturation of TTM-001 and TTM-002 capsids, NGS enrichment in NHP tissues; type: in vivo; conditions: relative to AAV9 control
Summary of the method: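 Variants carry mutations within and flanking the loop IV peptide insert: positions 450–466 were triplet-randomized, while positions 449–466 received low-frequency point mutations. The combined pool went into two NHPs, and each peptide was scored by NGS enrichment ratio against AAV9.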

brain = test: Matured TTM-001 and TTM-002 variants, NGS enrichment in mouse brain; type: in vivo, mice; conditions: relative to AAV9 control
[2] = NGS fold-enrichment of RNA, NHP brain
[3] = NGS fold-enrichment, DRG of NHPs
[4] = NGS fold-enrichment, NHP liver DNA
[5] = NGS fold-enrichment, NHP liver RNA
[6] = NGS fold-enrichment, NHP muscle
[7] = NGS fold-enrichment, RNA, brain of NHPs
[8] = NGS fold-enrichment, heart of NHPs
[9] = NGS fold-enrichment, liver DNA of NHPs
[10] = NGS fold-enrichment, liver RNA of NHPs
[11] = NGS fold-enrichment, muscle of NHPs
[12] = NGS fold-enrichment, brain of mice
[13] = NGS fold-enrichment, mouse brain
[14] = NGS fold-enrichment of matured AAV capsid variants, NHP brain, RNA

Sequence | Fold Enrichment relative to AAV9, Brain (NHP) [1, 14] | Fold Enrichment relative to AAV9, DRG (NHP) ([1]; NHP DRG) | Fold Enrichment relative to AAV9, Heart (NHP) ([1]; NHP heart) | Fold Enrichment relative to AAV9, Liver DNA (NHP) ([1]; NHP liver, DNA) | Fold Enrichment relative to AAV9, Liver RNA (NHP) ([1]; NHP liver, RNA) | Fold Enrichment relative to AAV9, Muscle (NHP) ([1]; NHP muscle) | Fold Enrichment relative to AAV9, Brain (Mouse) (brain; mouse brain) | other results
KTINGSGSPHSKAQKFET |  |  |  |  |  |  |  | Fold Enrichment relative to AAV9, Brain (NHP) [1, 2]: 75.788 fold; Fold Enrichment relative to AAV9, DRG (NHP) [1, 3]: 0.000 fold; Fold Enrichment relative to AAV9, DRG (NHP) ([1]; NGS fold-enrichment, NHP DRG): 0.000 fold; Fold Enrichment relative to AAV9, Heart (NHP) ([1]; NGS fold-enrichment, NHP heart): 0.000 fold; Fold Enrichment relative to AAV9, Liver DNA (NHP) [1, 4]: 0.093 fold; Fold Enrichment relative to AAV9, Liver RNA (NHP) [1, 5]: 0.108 fold; Fold Enrichment relative to AAV9, Muscle (NHP) [1, 6]: 0.028 fold; Fold Enrichment relative to AAV9, Brain (NHP) [1, 7]: 75.788 fold; Fold Enrichment relative to AAV9, Heart (NHP) [1, 8]: 0.000 fold; Fold Enrichment relative to AAV9, Liver DNA (NHP) [1, 9]: 0.093 fold; Fold Enrichment relative to AAV9, Liver RNA (NHP) [1, 10]: 0.108 fold; Fold Enrichment relative to AAV9, Muscle (NHP) [1, 11]: 0.028 fold; Fold Enrichment relative to AAV9, Brain (Mouse) (brain; [12]): 65.588 fold; Fold Enrichment relative to AAV9, Brain (Mouse) (brain; [13]): 65.588 fold
KTINGSGSPHSKAQKIST | 50.285 fold | 0.000 fold | 0.000 fold | 0.302 fold | 0.108 fold | 0.088 fold | 51.115 fold | 
KTINGSGSPHSKAQKLNT |  |  |  |  |  |  |  | Fold Enrichment relative to AAV9, DRG (NHP) [1, 3]: 0.073 fold; Fold Enrichment relative to AAV9, Brain (NHP) [1, 7]: 67.782 fold; Fold Enrichment relative to AAV9, Heart (NHP) [1, 8]: 0.092 fold; Fold Enrichment relative to AAV9, Liver DNA (NHP) [1, 9]: 0.201 fold; Fold Enrichment relative to AAV9, Liver RNA (NHP) [1, 10]: 1.232 fold; Fold Enrichment relative to AAV9, Muscle (NHP) [1, 11]: 0.000 fold; Fold Enrichment relative to AAV9, Brain (Mouse) (brain; [12]): 68.637 fold
KTINGSGSPHSKAQKQQD |  |  |  |  |  |  |  | Fold Enrichment relative to AAV9, DRG (NHP) [1, 3]: 0.000 fold; Fold Enrichment relative to AAV9, Brain (NHP) [1, 7]: 70.116 fold; Fold Enrichment relative to AAV9, Heart (NHP) [1, 8]: 0.024 fold; Fold Enrichment relative to AAV9, Liver DNA (NHP) [1, 9]: 0.083 fold; Fold Enrichment relative to AAV9, Liver RNA (NHP) [1, 10]: 0.064 fold; Fold Enrichment relative to AAV9, Muscle (NHP) [1, 11]: 0.000 fold; Fold Enrichment relative to AAV9, Brain (Mouse) (brain; [12]): 110.196 fold
KTINGSGSPHSKAQKTLT | 56.844 fold | 0.000 fold | 0.017 fold | 1.400 fold | 1.800 fold | 0.009 fold | 66.415 fold | 
KTINGSGSPHSKAQKVIT | 53.273 fold | 0.000 fold | 0.000 fold | 0.402 fold | 0.357 fold | 0.000 fold | 95.147 fold | 
KTINGSGSPHSKAQLHHT | 56.815 fold | 0.025 fold | 0.000 fold | 0.368 fold | 0.712 fold | 0.010 fold | 58.418 fold | 
KTINGSGSPHSKAQLPST | 56.238 fold | 0.005 fold | 4.258 fold | 0.185 fold | 1.040 fold | 0.001 fold | 84.918 fold | 
KTINGSGSPHSKAQMPNT | 52.408 fold | 0.084 fold | 0.036 fold | 0.359 fold | 0.057 fold | 0.025 fold | 66.040 fold | 
KTINGSGSPHSKAQMPST | 54.986 fold | 1.691 fold | 0.039 fold | 0.202 fold | 0.450 fold | 0.028 fold | 114.331 fold | 
KTINGSGSPHSKAQNIII | 56.630 fold | 0.000 fold | 0.062 fold | 0.056 fold | 0.099 fold | 0.123 fold | 76.742 fold | 
KTINGSGSPHSKAQNNDQ | 53.226 fold | 0.000 fold | 0.000 fold | 0.046 fold | 0.593 fold | 0.000 fold | 59.664 fold | 
KTINGSGSPHSKAQNTHD | 58.108 fold | 0.000 fold | 0.027 fold | 0.126 fold | 0.410 fold | 0.000 fold | 81.189 fold | 
KTINGSGSPHSKAQNTYA |  |  |  |  |  |  |  | Fold Enrichment relative to AAV9, DRG (NHP) [1, 3]: 0.000 fold; Fold Enrichment relative to AAV9, Brain (NHP) [1, 7]: 59.603 fold; Fold Enrichment relative to AAV9, Heart (NHP) [1, 8]: 0.000 fold; Fold Enrichment relative to AAV9, Liver DNA (NHP) [1, 9]: 0.346 fold; Fold Enrichment relative to AAV9, Liver RNA (NHP) [1, 10]: 0.425 fold; Fold Enrichment relative to AAV9, Muscle (NHP) [1, 11]: 0.000 fold; Fold Enrichment relative to AAV9, Brain (Mouse) (brain; [12]): 101.715 fold
KTINGSGSPHSKAQPAKT |  |  |  |  |  |  |  | Fold Enrichment relative to AAV9, Brain (NHP) [1, 2]: 111.472 fold; Fold Enrichment relative to AAV9, DRG (NHP) [1, 3]: 0.331 fold; Fold Enrichment relative to AAV9, DRG (NHP) ([1]; NGS fold-enrichment, NHP DRG): 0.331 fold; Fold Enrichment relative to AAV9, Heart (NHP) ([1]; NGS fold-enrichment, NHP heart): 0.000 fold; Fold Enrichment relative to AAV9, Liver DNA (NHP) [1, 4]: 1.796 fold; Fold Enrichment relative to AAV9, Liver RNA (NHP) [1, 5]: 0.044 fold; Fold Enrichment relative to AAV9, Muscle (NHP) [1, 6]: 1.089 fold; Fold Enrichment relative to AAV9, Brain (NHP) [1, 7]: 111.472 fold; Fold Enrichment relative to AAV9, Heart (NHP) [1, 8]: 0.000 fold; Fold Enrichment relative to AAV9, Liver DNA (NHP) [1, 9]: 1.796 fold; Fold Enrichment relative to AAV9, Liver RNA (NHP) [1, 10]: 0.044 fold; Fold Enrichment relative to AAV9, Muscle (NHP) [1, 11]: 1.089 fold; Fold Enrichment relative to AAV9, Brain (Mouse) (brain; [12]): 215.275 fold; Fold Enrichment relative to AAV9, Brain (Mouse) (brain; [13]): 215.275 fold
KTINGSGSPHSKAQPART | 55.513 fold | 0.000 fold | 0.000 fold | 0.991 fold | 1.294 fold | 0.328 fold | 127.301 fold | 
KTINGSGSPHSKAQPLGT | 53.049 fold | 0.015 fold | 0.004 fold | 0.222 fold | 0.515 fold | 0.001 fold | 68.656 fold | 
KTINGSGSPHSKAQPPAT |  |  |  |  |  |  |  | Fold Enrichment relative to AAV9, DRG (NHP) [1, 3]: 0.048 fold; Fold Enrichment relative to AAV9, Brain (NHP) [1, 7]: 63.510 fold; Fold Enrichment relative to AAV9, Heart (NHP) [1, 8]: 0.030 fold; Fold Enrichment relative to AAV9, Liver DNA (NHP) [1, 9]: 0.302 fold; Fold Enrichment relative to AAV9, Liver RNA (NHP) [1, 10]: 0.126 fold; Fold Enrichment relative to AAV9, Muscle (NHP) [1, 11]: 0.031 fold; Fold Enrichment relative to AAV9, Brain (Mouse) (brain; [12]): 117.453 fold
KTINGSGSPHSKAQRDIT | 52.415 fold | 0.098 fold | 0.000 fold | 0.605 fold | 1.784 fold | 0.008 fold | 88.122 fold | 
KTINGSGSPHSKAQRDQT | 51.897 fold | 0.069 fold | 0.014 fold | 0.554 fold | 0.867 fold | 0.040 fold | 102.317 fold | 
KTINGSGSPHSKAQREMT | 51.076 fold | 0.000 fold | 24.900 fold | 0.476 fold | 1.564 fold | 143.49 fold | 70.961 fold | 
KTINGSGSPHSKAQRMNT | 50.686 fold | 0.000 fold | 108.747 fold | 0.264 fold | 0.943 fold | 0.019 fold | 97.975 fold | 
